This passage reports IC50 results from US11642348B2, “Substituted benzene compounds” (Epizyme, Inc., priority 2012, dated 2023).

The target in test [1] is wild-type EZH2 (PRC2 complex) (Homo sapiens (Human), UniProt Q15910). Put plainly: PRC2 enzyme assay on peptide substrates (wild-type EZH2).
Test [2] deals with H3K27me3 in WSU-DLCL2 cells. The test can be described thus: WSU-DLCL2 methylation assay (H3K27me3 ELISA). The class given is cell-based. The settings on record: Homo sapiens, 96 hours. (In general: In an ELISA, binding on a coated surface is turned into a signal by an enzyme label.)
Text: WSU-DLCL2 suspension cells were purchased from DSMZ (German Collection of Microorganisms and Cell Cultures, Braunschweig, Germany). RPMI/Glutamax Medium, Penicillin-Streptomycin, Heat Inactivated Fetal Bovine Serum, and D-PBS were purchased from Life Technologies, Grand Island, N.Y., USA. Extraction Buffer and Neutralization Buffer (5×) were purchased from Active Motif, Carlsbad, Calif., USA. Rabbit anti-Histone H3 antibody was purchased from Abcam, Cambridge, Mass., USA. Rabbit anti-H3K27me3 and HRP-conjugated anti-rabbit-IgG were purchased from Cell Signaling Technology, Danvers, Mass., USA. TMB “Super Sensitive” substrate was sourced from BioFX Laboratories, Owings Mills, Md., USA. IgG-free Bovine Serum Albumin was purchased from Jackson ImmunoResearch, West Grove, Pa., USA. PBS with Tween (10×PBST) was purchased from KPL, Gaithersburg, Md., USA. Sulfuric Acid was purchased from Ricca Chemical, Arlington, Tex., USA. Immulon ELISA plates were purchased from Thermo, Rochester, N.Y., USA. V-bottom cell culture plates were purchased from Corning Inc., Corning, N.Y., USA. V-bottom polypropylene plates were purchased from Greiner Bio-One, Monroe, N.C., USA.
WSU-DLCL2 cells were seeded in assay medium at a concentration of 50,000 cells per mL to a 96-well V-bottom cell culture plate with 200 μL per well. […] Plates were incubated on a titer-plate shaker at 37° C., 5% CO2 for 96 hours. After four days of incubation, plates were spun at 241×g for five minutes and medium was aspirated gently from each well of cell plate without disturbing cell pellet. Pellet was resuspended in 200 μL DPBS and plates were spun again at 241×g for five minutes. The supernatant was aspirated and cold (4° C.) Extraction buffer (100 μL) was added per well. Plates were incubated at 4° C. on orbital shaker for two hours. […] Supernatant (80 μL per well) was transferred to its respective well in 96 well V-bottom polypropylene plate. Neutralization Buffer 5× (20 μL per well) was added to V-bottom polypropylene plate containing supernatant. V-bottom polypropylene plates containing crude histone preparation (CHP) were incubated on orbital shaker×five minutes. Crude Histone Preparations were added (2 μL per well) to each respective well into duplicate 96 well ELISA plates containing 100 μL Coating Buffer (1×PBS+BSA 0.05% w/v). Plates were sealed and incubated overnight at 4° C. The following day, plates were washed three times with 300 μL per well 1×PBST. […] For H3K27me3 detection, 100 μL of HRP conjugated anti-rabbit IgG antibody diluted to 1:4000 in ELISA diluent was added per well. Plates were incubated at room temperature for 90 minutes. […] TMB substrate 100 μL was added per well. Histone H3 plates were incubated for five minutes at room temperature. H3K27me3 plates were incubated for 10 minutes at room temperature. The reaction was stopped with sulfuric acid 1N (100 μL per well). Absorbance for each plate was read at 450 nm.
Each plate included eight control wells of DMSO only treatment (Minimum Inhibition) as well as eight control wells for maximum inhibition (Background wells).
The average of the ratio values for each control type was calculated and used to determine the percent inhibition for each test well in the plate. […] Percent inhibition was determined and IC50 curves were generated using duplicate wells per concentration of compound.
For another test, the system named is WSU-DLCL2 cells. Put plainly: Cell proliferation analysis (WSU-DLCL2, Cell Titer Glo). The class given is cell-based. Particulars: Homo sapiens, 6 days. A general note: ATP-based viability assays read luminescence as a measure of living cells.
[3] abbreviates: WSUDLCL2, Table 3A, read-out: H3K27Me3 ELISA IC50.
Setting [4] is: WSUDLCL2, Table 3B, read-out: WSU proliferation IC50.
Where [5] appears, read: WSUDLCL2, Table 3B, read-out: ELISA H3K27me3 IC50.

Where two headings read alike, the source gives them in different places. A value given as a limit tells only on which side of the number the result lay.

wild-type EZH2 (PRC2 complex), sequence (Q15910 other isoform, or with tags, fused parts or gaps): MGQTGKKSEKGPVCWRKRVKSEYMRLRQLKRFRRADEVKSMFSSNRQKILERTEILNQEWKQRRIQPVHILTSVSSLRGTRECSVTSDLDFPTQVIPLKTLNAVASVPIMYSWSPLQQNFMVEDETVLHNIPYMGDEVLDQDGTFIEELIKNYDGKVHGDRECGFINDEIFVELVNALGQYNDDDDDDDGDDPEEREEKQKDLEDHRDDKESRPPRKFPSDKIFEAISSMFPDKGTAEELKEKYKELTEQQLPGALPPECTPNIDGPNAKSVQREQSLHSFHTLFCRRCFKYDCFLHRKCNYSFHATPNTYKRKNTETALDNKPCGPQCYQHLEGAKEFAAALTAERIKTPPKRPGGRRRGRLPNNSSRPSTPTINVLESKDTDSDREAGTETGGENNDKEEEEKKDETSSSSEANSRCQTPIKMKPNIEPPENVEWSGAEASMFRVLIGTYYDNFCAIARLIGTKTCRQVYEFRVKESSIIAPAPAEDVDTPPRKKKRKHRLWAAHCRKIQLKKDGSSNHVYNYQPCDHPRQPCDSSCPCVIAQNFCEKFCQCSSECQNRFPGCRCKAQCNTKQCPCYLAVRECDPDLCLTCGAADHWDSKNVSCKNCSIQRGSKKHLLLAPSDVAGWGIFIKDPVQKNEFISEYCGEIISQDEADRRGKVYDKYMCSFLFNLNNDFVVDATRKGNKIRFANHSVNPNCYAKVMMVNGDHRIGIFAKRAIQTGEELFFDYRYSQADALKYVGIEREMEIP
wild-type EZH2 (PRC2 complex), sequence (O75530 whole entry partner): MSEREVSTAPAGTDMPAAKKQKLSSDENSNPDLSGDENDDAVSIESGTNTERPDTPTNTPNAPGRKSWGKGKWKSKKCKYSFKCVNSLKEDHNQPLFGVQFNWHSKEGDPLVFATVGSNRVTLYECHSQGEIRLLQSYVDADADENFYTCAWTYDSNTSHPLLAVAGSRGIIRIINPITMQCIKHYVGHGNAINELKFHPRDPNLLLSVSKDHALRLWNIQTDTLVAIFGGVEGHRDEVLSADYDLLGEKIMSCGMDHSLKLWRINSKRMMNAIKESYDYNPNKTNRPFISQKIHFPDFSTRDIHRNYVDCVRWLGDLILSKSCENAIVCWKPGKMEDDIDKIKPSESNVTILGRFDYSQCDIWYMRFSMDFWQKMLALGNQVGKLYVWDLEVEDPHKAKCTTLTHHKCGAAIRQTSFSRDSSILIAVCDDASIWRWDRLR
wild-type EZH2 (PRC2 complex), sequence (Q15022 whole entry partner): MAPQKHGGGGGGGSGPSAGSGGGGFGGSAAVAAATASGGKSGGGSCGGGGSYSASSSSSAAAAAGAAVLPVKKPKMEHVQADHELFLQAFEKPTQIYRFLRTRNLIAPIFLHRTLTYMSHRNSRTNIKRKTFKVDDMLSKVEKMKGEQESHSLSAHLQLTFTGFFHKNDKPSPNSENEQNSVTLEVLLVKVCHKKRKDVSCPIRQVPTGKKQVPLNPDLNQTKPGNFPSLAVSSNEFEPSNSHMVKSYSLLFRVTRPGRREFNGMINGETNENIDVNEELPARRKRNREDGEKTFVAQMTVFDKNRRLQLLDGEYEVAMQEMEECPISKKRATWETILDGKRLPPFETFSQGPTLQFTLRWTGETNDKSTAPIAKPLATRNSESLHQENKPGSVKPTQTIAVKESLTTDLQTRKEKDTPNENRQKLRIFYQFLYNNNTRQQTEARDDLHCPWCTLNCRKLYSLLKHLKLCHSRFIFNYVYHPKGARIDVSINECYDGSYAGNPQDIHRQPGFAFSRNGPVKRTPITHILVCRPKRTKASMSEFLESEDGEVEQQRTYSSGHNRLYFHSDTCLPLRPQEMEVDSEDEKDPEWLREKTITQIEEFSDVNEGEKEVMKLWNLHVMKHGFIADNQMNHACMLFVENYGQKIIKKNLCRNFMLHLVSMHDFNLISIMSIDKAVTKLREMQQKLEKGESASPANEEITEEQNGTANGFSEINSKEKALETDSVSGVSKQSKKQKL
wild-type EZH2 (PRC2 complex), sequence (Q09028 whole entry partner): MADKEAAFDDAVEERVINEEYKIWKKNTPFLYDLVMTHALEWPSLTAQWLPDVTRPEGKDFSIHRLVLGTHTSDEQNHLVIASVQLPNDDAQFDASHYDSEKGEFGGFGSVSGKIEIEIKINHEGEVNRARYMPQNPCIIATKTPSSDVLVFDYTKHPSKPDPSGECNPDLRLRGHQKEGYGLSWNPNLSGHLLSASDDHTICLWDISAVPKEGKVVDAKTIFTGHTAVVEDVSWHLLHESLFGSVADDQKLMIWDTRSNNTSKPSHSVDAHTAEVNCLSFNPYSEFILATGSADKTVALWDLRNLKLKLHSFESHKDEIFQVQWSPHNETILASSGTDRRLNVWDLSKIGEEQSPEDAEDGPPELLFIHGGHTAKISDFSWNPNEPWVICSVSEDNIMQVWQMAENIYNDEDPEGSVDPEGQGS

In the case of `CCN(c1cc(-c2ccc(OCCOC)nc2)cc(C(=O)NCc2c(C)cc(C)[nH]c2=O)c1C)[C@H]1CC[C@H](N(C)C)CC1` [Compound 5, N-((4,6-dimethyl-2-oxo-1,2-dihydropyridin-3-yl)methyl)-3-(((trans)-4-(dimethylamino)cyclohexyl)(ethyl)amino)-5-(6-(2-methoxyethoxy)pyridin-3-yl)-2-methylbenzamide], the IC50 in test [1] is 13.1 nM.

For the compound `CCN(c1cc(-c2ccc(OCCOCCOC)cc2)cc(C(=O)NCc2c(C)cc(C)[nH]c2=O)c1C)[C@H]1CC[C@H](N(C)C)CC1` [Compound 6, N-((4,6-dimethyl-2-oxo-1,2-dihydropyridin-3-yl)methyl)-5-(((trans)-4-(dimethylamino)cyclohexyl)(ethyl)amino)-4′-(2-(2-methoxyethoxy)ethoxy)-4-methyl-[1,1′-biphenyl]-3-carboxamide], the IC50 in test [2] (setting [3]) came to 57.5 nM; in test [1], 15.4 nM.

For the compound `CCN(c1cc(OCCN2CCOCC2)cc(C(=O)NCc2c(C)cc(C)[nH]c2=O)c1C)[C@H]1CC[C@H](N(C)CCOC)CC1` [Compound 13, N-((4,6-dimethyl-2-oxo-1,2-dihydropyridin-3-yl)methyl)-3-(ethyl((trans)-4-((2-methoxyethyl)(methyl)amino)cyclohexyl)amino)-2-methyl-5-(2-morpholinoethoxy)benzamide], in test [2] (setting [3]), the IC50 is above 50000 nM.

As to `CCN(c1cc(OCCCN2CCOCC2)cc(C(=O)NCc2c(C)cc(C)[nH]c2=O)c1C)[C@H]1CC[C@H](N(C)CCOC)CC1` [Compound 14, N-((4,6-dimethyl-2-oxo-1,2-dihydropyridin-3-yl)methyl)-3-(ethyl((trans)-4-((2-methoxyethyl)(methyl)amino)cyclohexyl)amino)-2-methyl-5-(3-morpholinopropoxy)benzamide], the IC50 in test [2] (setting [3]) is 17100 nM.

On to `CCN(c1cc(-c2cnc(C)nc2)cc(C(=O)NCc2c(C)cc(C)[nH]c2=O)c1C)[C@H]1CC[C@H](N(C)CCOC)CC1` [Compound 19], for which the IC50 in test [1] was determined as 9.81 nM.

`CCN(c1cc(-c2cnc(OC)nc2)cc(C(=O)NCc2c(C)cc(C)[nH]c2=O)c1C)[C@H]1CC[C@H](N(C)CCOC)CC1` [Compound 20] returned an IC50 in test [1] below 5 nM.

For the compound `CCN(c1cc(-c2ccc(CN3CCOCC3)cc2)cc(C(=O)NCc2c(C)cc(C)[nH]c2=O)c1C)[C@H]1CC[C@H](N(C)CCOC)CC1` [Compound 26], the IC50 in the test with WSU-DLCL2 cells (WSUDLCL2, Table 3A, read-out: WSU Prolif. IC50) is 138 nM; in test [2] (setting [3]), 87 nM.

With `CCN(c1cc(C#CC2CCN(C)CC2)cc(C(=O)NCc2c(C)cc(C)[nH]c2=O)c1C)C1CCOCC1` [Compound 105, N-((4,6-dimethyl-2-oxo-1,2-dihydropyridin-3-yl)methyl)-3-(ethyl(tetrahydro-2H-pyran-4-yl)amino)-2-methyl-5-((1-methylpiperidin-4-yl)ethynyl)benzamide], the IC50 in test [2] (setting [3]) turned out to be 150 nM.

In the case of `CCN(c1cc(C#CCN2CCOCC2)cc(C(=O)NCc2c(C)cc(C)[nH]c2=O)c1C)C1CCC(N(C)C)CC1` (stereo not shown) [Compound 111], the figures for the IC50 (in the test on WSU-DLCL2 cells (setting [4]); in test [2] (setting [5])) were 201 nM and 14 nM, respectively.

In test [1], `CCN(c1cc(C#CCN2CCOCC2)cc(C(=O)NCc2c(C)cc(C)[nH]c2=O)c1C)[C@H]1CC[C@H](N(C)C)CC1` [Compound 111] had an IC50 below 5 nM.

Consider `CCN(c1cc(C#CCN2CCCN(C)CC2)cc(C(=O)NCc2c(C)cc(C)[nH]c2=O)c1C)C1CCC(N(C)C)CC1` (stereo not shown) [Compound 112], for which the results for the IC50 (with WSU-DLCL2 cells (setting [4]); in test [2] (setting [5])) were 798 nM and 179 nM, respectively.

On to `CCN(c1cc(-c2ccc(N3CCN(C)CC3)nc2)cc(C(=O)NCc2c(C)cc(C)[nH]c2=O)c1C)C1C[C@@H](C)N[C@H](C)C1` (stereo partly shown) [Compound 124], for which the IC50 in the test with WSU-DLCL2 cells (setting [4]) was 158 nM; in test [2] (setting [5]) it was 166 nM.

For the compound `CCN(c1cc(-c2ccc(N3CCN(C)CC3)nc2)cc(C(=O)NCc2c(C)cc(C)[nH]c2=O)c1C)C1CCN(C)CC1` [Compound 125], the results for the IC50 (in the test with WSU-DLCL2 cells (setting [4]); in test [2] (setting [5])) were 155 nM and 291 nM, respectively.

`CCN(c1cc(-c2ccc(COC)nc2)cc(C(=O)NCc2c(C(C)C)cc(C)[nH]c2=O)c1C)C1CCOCC1` [Compound 129]: the IC50 was 254 nM with WSU-DLCL2 cells (setting [4]) and 354 nM in test [2] (setting [5]).

As to `CCN(c1cc(-c2ccc(OC)nc2)cc(C(=O)NCc2c(C)cc(C)[nH]c2=O)c1C)C1CCOCC1` [Compound 130], the IC50 (in the test with WSU-DLCL2 cells (setting [4]); in test [2] (setting [5])) was 218 nM in each case.

Consider `CCN(c1cc(-c2ccc(OC3CCN(C)CC3)nc2)cc(C(=O)NCc2c(C)cc(C)[nH]c2=O)c1C)C1CCOCC1` [Compound 133], for which the IC50 in the test on WSU-DLCL2 cells (setting [4]) turned out to be 503 nM.

With `CCN(c1cc(-c2ccc(CN3CCCN(C)CC3)nc2)cc(C(=O)NCc2c(C)cc(C)[nH]c2=O)c1C)C1CCOCC1` [Compound 135], the IC50 was determined as 176 nM in the test with WSU-DLCL2 cells (setting [4]) and 192 nM in test [2] (setting [5]).

Consider `CCN(c1cc(-c2ccc(CN3CCCN(C)CC3)nc2)cc(C(=O)NCc2c(C(C)C)cc(C)[nH]c2=O)c1C)C1CCOCC1` [Compound 136], for which the IC50 amounted to 566 nM in the test with WSU-DLCL2 cells (setting [4]) and 259 nM in test [2] (setting [5]).

In the case of `CCN(c1cc(-c2ccc(N3CCCN(C)CC3)nc2)cc(C(=O)NCc2c(C)cc(C)[nH]c2=O)c1C)C1CCOCC1` [Compound 137], the IC50 worked out at 505 nM in the test with WSU-DLCL2 cells (setting [4]) and 56 nM in test [2] (setting [5]).

For `CCN(c1cc(-c2ccc(CN3CCCC3)nc2)cc(C(=O)NCc2c(C)cc(C)[nH]c2=O)c1C)C1CCOCC1` [Compound 138], the IC50 in the test with WSU-DLCL2 cells (setting [4]) was 178 nM; in test [2] (setting [5]), 288 nM.

With `CCN(c1cc(-c2ccc(CN3CCCCC3)nc2)cc(C(=O)NCc2c(C)cc(C)[nH]c2=O)c1C)C1CCOCC1` [Compound 139], the results for the IC50 (with WSU-DLCL2 cells (setting [4]); in test [2] (setting [5])) were 24.9 nM and 95.8 nM, respectively.

On to `CCN(c1cc(-c2ccc(CN3CCC(O)CC3)nc2)cc(C(=O)NCc2c(C(C)C)cc(C)[nH]c2=O)c1C)C1CCOCC1` [Compound 140], for which the IC50 in the test on WSU-DLCL2 cells (setting [4]) was 716 nM.

As to `CCN(c1cc(-c2ccc(CN3CCC[C@H](O)C3)nc2)cc(C(=O)NCc2c(C(C)C)cc(C)[nH]c2=O)c1C)C1CCOCC1` [Compound 141], the values for the IC50 (in the test on WSU-DLCL2 cells (setting [4]); in test [2] (setting [5])) were 123 nM and 349 nM, respectively.

Take `CCN(c1cc(-c2ccc(CN3CCOCC3)nc2)cc(C(=O)NCc2c(C(F)(F)F)cc(C)[nH]c2=O)c1C)C1CCOCC1` [Compound 142]: the IC50 in the test with WSU-DLCL2 cells (setting [4]) came to 2000 nM; in test [2] (setting [5]), 699 nM.

On to `CCN(c1cc(-c2ccc(N3CCC(O)CC3)nc2)cc(C(=O)NCc2c(C)cc(C)[nH]c2=O)c1C)[C@H]1CC[C@H](N(C)C)CC1` [Compound 143], for which the IC50 with WSU-DLCL2 cells (setting [4]) stood at 276 nM; in test [2] (setting [5]), 18 nM.

Take `CCN(c1cc(-c2ccc(N3CC(O)C3)nc2)cc(C(=O)NCc2c(C)cc(C)[nH]c2=O)c1C)[C@H]1CC[C@H](N(C)C)CC1` [Compound 144]: the IC50 came out at 1540 nM in the test on WSU-DLCL2 cells (setting [4]) and 92 nM in test [2] (setting [5]).

For the compound `CCN(c1cc(-c2ccc(CN3CCOCC3)nc2)cc(C(=O)NCc2c(C)cc(C)[nH]c2=O)c1C)[C@H]1CC[C@H](N(C)C)CC1` [Compound 145], the IC50 is 185 nM in the test on WSU-DLCL2 cells (setting [4]) and 84.2 nM in test [2] (setting [5]).

Take `CCN(c1cc(-c2ccc(CN3CCC(O)CC3)c(F)c2)cc(C(=O)NCc2c(C)cc(C)[nH]c2=O)c1C)C1CCOCC1` [Compound 153]: in the test with WSU-DLCL2 cells (setting [4]), the IC50 amounted to 476 nM.

Take `CCN(c1cc(-c2ccc(CN3CC(O)C3)c(F)c2)cc(C(=O)NCc2c(C)cc(C)[nH]c2=O)c1C)C1CCOCC1` [Compound 154]: the IC50 amounted to 394 nM with WSU-DLCL2 cells (setting [4]) and 529 nM in test [2] (setting [5]).

As to `CCN(c1cc(C#CC2CCN(C3CN(C)C3)CC2)cc(C(=O)NCc2c(C)cc(C)[nH]c2=O)c1C)C1CCOCC1` [Compound 162], the IC50 in test [1] was 12 nM.
